Laboratory results: ChEMBL document CHEMBL1137202, “Synthesis and biological activity of new potential agonists for the human adenosine A2A receptor” (J Med Chem, 2004)

Columns and labels:
Adenosine receptor A3 = target: T1, Adenosine receptor A3 (Homo sapiens, UniProt P0DMS8); experiment: Inhibition of [3H]NECA binding to human adenosine A3 receptor expressed in HeLa cells; format: cell-based
T1 sequence (P0DMS8 whole entry): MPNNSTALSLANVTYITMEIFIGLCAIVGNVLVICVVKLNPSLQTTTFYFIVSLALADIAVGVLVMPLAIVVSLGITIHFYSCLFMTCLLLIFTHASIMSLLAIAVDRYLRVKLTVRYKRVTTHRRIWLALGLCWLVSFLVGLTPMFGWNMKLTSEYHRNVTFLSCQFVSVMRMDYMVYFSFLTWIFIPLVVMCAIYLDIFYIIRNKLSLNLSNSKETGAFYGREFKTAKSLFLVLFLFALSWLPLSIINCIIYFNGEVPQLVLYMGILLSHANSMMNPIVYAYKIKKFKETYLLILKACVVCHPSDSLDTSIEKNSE

Adenosine receptor A2a [1] = target: T2, Adenosine receptor A2a (Homo sapiens, UniProt P29274)
Description: Potency against cAMP formation in CHO cells expressing recombinant human A2A receptor

Adenosine receptor A2a [2] = target: Adenosine receptor A2a (Rattus norvegicus, UniProt P30543)
Description: Efficacy against phenylephrine precontracted tissue relaxation in rat aorta

Adenosine receptor A2a [3] = target: T2, Adenosine receptor A2a; experiment: biochemical
Description: Inhibition of [3H]ZM-241385 binding to human adenosine A2A receptor expressed in HeLa cells

Cavia porcellus [4] = organism: Cavia porcellus; experiment: Concentration-Relaxation Studies was exerted on Guinea Pig Tracheal Rings Precontracted by Carbachol by the compound in presence of Adenosine antagonist CSC ( E-4 M); format: functional, organism-based; settings: Trachea
Cavia porcellus [5] = organism: Cavia porcellus; experiment: Concentration-Relaxation Studies was exerted on Guinea Pig Tracheal Rings Precontracted by Carbachol by the compound in presence of Adenosine antagonist 8-PT ( E-4 M); format: functional, organism-based; settings: Trachea
Cavia porcellus [6] = organism: Cavia porcellus; experiment: Concentration-Relaxation Studies was exerted on Guinea Pig Tracheal Rings Precontracted by Carbachol by the compound in presence of Adenosine antagonist DMPX ( E-4 M); format: functional, organism-based; settings: Trachea
Cavia porcellus [7] = organism: Cavia porcellus; experiment: Concentration-Relaxation Studies was exerted on Guinea Pig Tracheal Rings Precontracted by Carbachol by the compound in presence of Adenosine antagonist Alloxazine ( E-4 M); format: functional, organism-based; settings: Trachea
Adenosine receptor A1 = target: T3, Adenosine receptor A1 (Homo sapiens, UniProt P30542); experiment: Inhibition of [3H]DPCPX binding to human adenosine A1 receptor expressed in CHO cells; format: cell-based
T3 sequence (P30542 whole entry): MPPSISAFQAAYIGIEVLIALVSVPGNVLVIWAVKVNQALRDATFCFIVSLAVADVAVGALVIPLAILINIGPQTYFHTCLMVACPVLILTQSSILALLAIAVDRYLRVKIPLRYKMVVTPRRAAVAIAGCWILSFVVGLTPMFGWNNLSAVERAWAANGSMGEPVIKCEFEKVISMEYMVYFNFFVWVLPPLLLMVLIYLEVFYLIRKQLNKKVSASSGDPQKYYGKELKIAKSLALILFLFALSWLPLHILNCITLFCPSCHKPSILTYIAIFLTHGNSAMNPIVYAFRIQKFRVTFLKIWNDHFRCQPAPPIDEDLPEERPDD

Adenosine receptor A2b [8] = target: T4, Adenosine receptor A2b (Homo sapiens, UniProt P29275); experiment: Potency against cAMP formation in CHO cells expressing recombinant human A2B receptor; format: functional, cell-based
T4 sequence (P29275 whole entry): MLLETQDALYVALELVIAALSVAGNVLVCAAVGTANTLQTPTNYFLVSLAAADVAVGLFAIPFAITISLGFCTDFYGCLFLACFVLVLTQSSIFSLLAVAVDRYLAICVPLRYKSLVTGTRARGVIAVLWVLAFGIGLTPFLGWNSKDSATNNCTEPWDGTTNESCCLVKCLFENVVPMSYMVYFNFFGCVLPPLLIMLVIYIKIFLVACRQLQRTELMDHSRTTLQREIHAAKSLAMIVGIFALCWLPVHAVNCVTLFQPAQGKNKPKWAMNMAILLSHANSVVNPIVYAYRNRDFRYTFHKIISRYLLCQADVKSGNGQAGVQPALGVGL

Adenosine receptor A2b [9] = target: T4, Adenosine receptor A2b; experiment: Inhibition of [3H]DPCPX binding to human adenosine A2B receptor expressed in HEK293 cells; format: cell-based
[10] = target: Adenosine receptor A2b (Cavia porcellus); experiment: Relative efficacy against phenylephrine precontracted tissue relaxation in Guinea pig aorta
[11] = tested on: Adenosine receptor A2b (Cavia porcellus); experiment: Relative efficacy against phenylephrine precontracted tissue relaxation in Guinea pig aorta compared to NECA

Sequence of Adenosine receptor A2a (Rattus norvegicus, UniProt P30543) (P30543 whole entry): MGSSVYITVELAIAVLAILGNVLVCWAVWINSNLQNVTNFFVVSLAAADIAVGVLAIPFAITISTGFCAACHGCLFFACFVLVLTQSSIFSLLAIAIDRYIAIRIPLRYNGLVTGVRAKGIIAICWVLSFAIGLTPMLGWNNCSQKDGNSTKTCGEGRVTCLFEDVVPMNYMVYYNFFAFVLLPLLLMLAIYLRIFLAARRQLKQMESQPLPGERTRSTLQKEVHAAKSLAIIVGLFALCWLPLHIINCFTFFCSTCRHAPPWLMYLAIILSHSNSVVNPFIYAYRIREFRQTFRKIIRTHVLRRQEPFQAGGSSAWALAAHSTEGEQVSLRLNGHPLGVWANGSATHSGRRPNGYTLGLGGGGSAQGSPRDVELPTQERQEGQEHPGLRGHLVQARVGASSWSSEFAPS
T2 sequence (P29274 whole entry): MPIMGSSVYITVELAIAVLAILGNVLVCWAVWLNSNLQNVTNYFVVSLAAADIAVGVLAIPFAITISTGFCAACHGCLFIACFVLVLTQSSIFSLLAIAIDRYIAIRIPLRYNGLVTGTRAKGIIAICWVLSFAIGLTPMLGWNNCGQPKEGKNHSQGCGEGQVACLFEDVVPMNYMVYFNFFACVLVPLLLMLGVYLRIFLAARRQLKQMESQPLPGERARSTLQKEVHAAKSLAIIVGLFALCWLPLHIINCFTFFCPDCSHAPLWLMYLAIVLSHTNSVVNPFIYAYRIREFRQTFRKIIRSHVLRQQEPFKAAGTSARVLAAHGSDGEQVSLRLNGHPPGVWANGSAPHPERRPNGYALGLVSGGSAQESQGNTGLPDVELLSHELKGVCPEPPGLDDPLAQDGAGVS

| SMILES | Ki (Adenosine receptor A3) | EC50 (Adenosine receptor A2a [1]) | EC50 (Adenosine receptor A2a [2]) | Ki (Adenosine receptor A2a [3]) | EC50 (Cavia porcellus [4]) | EC50 (Cavia porcellus [6]) | EC50 (Cavia porcellus [7]) | Ki (Adenosine receptor A1) | EC50 (Adenosine receptor A2b [8]) | Ki (Adenosine receptor A2b [9]) | EC50 [10] | Emax [11] | EC50 (Cavia porcellus [5]) |
| --- | --- | --- | --- | --- | --- | --- | --- | --- | --- | --- | --- | --- | --- |
| CCn1nnc([C@H]2O[C@@H](n3cnc4c(N)nc(N[C@H](CO)Cc5ccc(O)cc5)nc43)[C@H](O)[C@@H]2O)n1 | 140 nM | 8 nM | 2.9 nM | 5 nM |  |  |  |  |  |  |  |  |  |
| CCn1nnc([C@H]2O[C@@H](n3cnc4c(N)nc(N[C@H](CO)Cc5ccccc5)nc43)[C@H](O)[C@@H]2O)n1 [GW-328267] |  | 8.8 nM | 10 nM | 46 nM | 51000 nM | 46000 nM | 88000 nM | 369 nM |  |  |  |  | 64000 nM |
| Nc1ncnc2c1ncn2[C@@H]1O[C@H](CO)[C@@H](O)[C@H]1O [ADENOSINE] |  |  |  |  | 570000 nM | 340000 nM | 550000 nM |  |  |  |  |  | 460000 nM |
| CCn1nnc([C@H]2O[C@@H](n3cnc4c(N)nc(N[C@H](CO)Cc5ccc(OC)cc5)nc43)[C@H](O)[C@@H]2O)n1 | 130 nM | 1.4 nM |  | 38 nM | 22000 nM | 36000 nM | 36000 nM | > 10000 nM | 680 nM | 1180 nM |  |  |  |
| CCNC(=O)[C@H]1O[C@@H](n2cnc3c(N)ncnc32)[C@H](O)[C@@H]1O [NECA] |  |  |  |  | 84000 nM | 77000 nM | 88000 nM |  |  |  |  |  | 65000 nM |
| CCn1nnc([C@H]2O[C@@H](n3cnc4c(N)nc(N[C@H](C)Cc5ccc(OC)cc5)nc43)[C@H](O)[C@@H]2O)n1 | 100 nM | 3 nM | 4 nM | 1 nM | 26000 nM | 23000 nM | 15000 nM | 356 nM |  |  |  |  |  |

Further lines, with some results ahead:

| Ki (Adenosine receptor A3) | EC50 (Adenosine receptor A2a [1]) | EC50 (Adenosine receptor A2a [2]) | Ki (Adenosine receptor A2a [3]) | EC50 (Cavia porcellus [4]) | EC50 (Cavia porcellus [6]) | EC50 (Cavia porcellus [7]) | Ki (Adenosine receptor A1) | EC50 (Adenosine receptor A2b [8]) | Ki (Adenosine receptor A2b [9]) | EC50 [10] | Emax [11] | SMILES | EC50 (Cavia porcellus [5]) |
| --- | --- | --- | --- | --- | --- | --- | --- | --- | --- | --- | --- | --- | --- |
| 288 nM | 97 nM |  | 270 nM | 17000 nM |  | 38000 nM | 670 nM | 4700 nM | 2720 nM |  |  | CCn1nnc([C@H]2O[C@@H](n3cnc4c(N)nc(N[C@H](CO)Cc5ccc(Cl)cc5)nc43)[C@H](O)[C@@H]2O)n1 |  |
| 83 nM | 1.6 nM | 6.7 nM | 5 nM |  |  |  | 310 nM | 560 nM | 2260 nM | 1300 nM | 125% | CCn1nnc([C@H]2O[C@@H](n3cnc4c(N)nc(N[C@H](CO)Cc5ccc(Br)cc5)nc43)[C@H](O)[C@@H]2O)n1 |  |
| 400 nM | 3.1 nM |  | 48 nM |  |  |  | > 10000 nM | 1200 nM | 3660 nM |  |  | CCn1nnc([C@H]2O[C@@H](n3cnc4c(N)nc(N[C@H](CO)Cc5ccc([N+](=O)[O-])cc5)nc43)[C@H](O)[C@@H]2O)n1 |  |
